Experimental data taken from paper PMC4080982, “Interactions of antagonists with subtypes of inositol 1,4,5-trisphosphate (IP3) receptor” (British Journal of Pharmacology, 2014).

What was measured:
rat IP3R1 = target: T1, rat IP3R1 (Rattus norvegicus, UniProt P29994); test: IP3-evoked Ca^2+ release from permeabilized DT40-IP3R1 cells; type: cell-based
T1 construct: different for NTs (NT2 > NT1 > > NT3) and full-length IP3Rs (IP3R3 > IP3R1 ≥ IP3R2); expressed in transfected cells
Description: (§1) We used DT40 cells lacking endogenous IP3Rs (Sugawara et al., [1997]), but stably expressing rat IP3R1 (GenBank accession number GQ233032.1; Pantazaka and Taylor, [2011]), mouse IP3R2 (GU980658.1; Tovey et al., [2010]) or rat IP3R3 (GQ233031.1; Rahman et al., [2009]). Cells were grown in suspension in RPMI 1640 medium supplemented with 10% FBS, 1% heat-inactivated chicken serum, 2 mM glutamine and 50 μM 2-mercaptoethanol at 37°C in humidified air containing 5% CO2. Cells were used or passaged when they reached a density of ∼1.5 × 10^6 cells mL^−1.
(§2) A low-affinity Ca^2+ indicator trapped within the ER of permeabilized DT40 cells was used to measure IP3-evoked Ca^2+ release (Tovey et al., [2006]; Saleem et al., [2012]). Briefly, the ER was loaded with indicator by incubating cells (∼5 × 10^7 mL^−1) in the dark with Mag-fluo-4AM (20 μM) in HEPES-buffered saline (HBS) containing 0.02% (v/v) Pluronic F127 for 1 h at 22°C. HBS had the following composition: 135 mM NaCl, 5.9 mM KCl, 11.6 mM HEPES, 1.5 mM CaCl2, 11.5 mM glucose, 1.2 mM MgCl2, pH 7.3. After permeabilization of the plasma membrane with saponin (10 μg·mL^−1, 4 min, 37°C) in Ca^2+-free cytosol-like medium (CLM), permeabilized cells were washed (650× g, 2 min) and resuspended (∼10^7 mL^−1) in Mg^2+-free CLM containing carbonyl cyanide 4-(trifluoromethoxy) phenylhydrazone (FCCP, 10 μM) to inhibit mitochondria, and supplemented with CaCl2 to give a final free [Ca^2+] of 220 nM after addition of 1.5 mM MgATP. Ca^2+-free CLM had the following composition: 2 mM NaCl, 140 mM KCl, 1 mM EGTA, 20 mM PIPES, 2 mM MgCl2, pH 7.0. Permeabilized cells were then distributed into 96-well plates (50 μL, 5 × 10^5 cells per well), centrifuged (300× g, 2 min) and used for experiments at 20°C. Addition of MgATP (1.5 mM) allowed Ca^2+ uptake by the ER, which was monitored at intervals of ∼1 s using a FlexStation-3 plate reader (MDS Analytical Devices, Berkshire, UK; Tovey et al., [2006]). After 2 min, when the ER had loaded to steady-state with Ca^2+, IP3 was added with CPA (10 μM) to inhibit further Ca^2+ uptake. IP3-evoked Ca^2+ release was expressed as a fraction of that released by ionomycin (1 μM; Tovey et al., [2006]). Similar methods were used to measure IP3-evoked Ca^2+ release from intact or permeabilized HEK cells (Tovey et al., [2008]). The timings of antagonist additions are described in the figure legends. The affinity of each competitive antagonist (pKD) was determined from the intercept on the abscissa of the Schild plot.
(§3) Concentration–effect relationships were fitted to Hill equations using Prism (version 5.0, GraphPad, San Diego, CA, USA), from which Hill coefficients (h), the fraction of the intracellular Ca^2+ stores released by a maximally effective concentrations of IP3, and pEC50 values were calculated.

mouse IP3R2 = target: T2, mouse IP3R2 (Mus musculus, UniProt Q9Z329); test: IP3-evoked Ca^2+ release from permeabilized DT40-IP3R2 cells; type: cell-based
T2 construct: different for NTs (NT2 > NT1 > > NT3) and full-length IP3Rs (IP3R3 > IP3R1 ≥ IP3R2); expressed in transfected cells
Description: as §1, §2, §3

rat IP3R3 = target: T3, rat IP3R3 (Rattus norvegicus, UniProt Q63269); test: IP3-evoked Ca^2+ release from permeabilized DT40-IP3R3 cells; type: cell-based
T3 construct: different for NTs (NT2 > NT1 > > NT3) and full-length IP3Rs (IP3R3 > IP3R1 ≥ IP3R2); expressed in transfected cells
Description: as §1, §2, §3

[1] = tested on: cerebellar membranes (IP3R1); test: ^3H-IP3 binding to cerebellar membranes; conditions: ^3H-IP3 1.5 nM, in CLM
Description: (§4) Reactions were terminated after 5 min by centrifugation (20,000× g, 5 min) for membranes, or by centrifugation after addition of poly(ethylene glycol)-8000 [30% (w/v), 500 μL] and γ-globulin (30 μL, 25 mg·mL^−1) for NT. […] Results were fitted to Hill equations using Prism, from which IC50 values were calculated.

[2] = tested on: permeabilized DT40-IP3R1-3 cells; test: Ca^2+ uptake and Ca^2+ content of the intracellular stores of permeabilized DT40 cells; type: cell-based
Description: Briefly, the ER was loaded with indicator by incubating cells (∼5 × 10^7 mL^−1) in the dark with Mag-fluo-4AM (20 μM) in HEPES-buffered saline (HBS) containing 0.02% (v/v) Pluronic F127 for 1 h at 22°C. […] Ca^2+-free CLM had the following composition: 2 mM NaCl, 140 mM KCl, 1 mM EGTA, 20 mM PIPES, 2 mM MgCl2, pH 7.0. Permeabilized cells were then distributed into 96-well plates (50 μL, 5 × 10^5 cells per well), centrifuged (300× g, 2 min) and used for experiments at 20°C. […] After 2 min, when the ER had loaded to steady-state with Ca^2+, IP3 was added with CPA (10 μM) to inhibit further Ca^2+ uptake. […] The timings of antagonist additions are described in the figure legends. The affinity of each competitive antagonist (pKD) was determined from the intercept on the abscissa of the Schild plot.

HEK cells = test: Carbachol-evoked Ca^2+ signals in intact HEK cells; type: cell-based; conditions: Homo sapiens, HEK293; intact fluo-4-loaded HEK cells; control cells; read-out: pEC50 for the carbachol-evoked Ca^2+ signals (converted)
Description: as §2

[3] = target: T4, NT2 (residues 1–604 of mouse IP3R2) (Mus musculus, UniProt Q9Z329); test: Equilibrium-competition binding with ^3H-IP3 to purified NT2; conditions: NT versus corresponding full-length IP3R
T4 construct: N-terminal fragments (NT, residues 1–604) of rat IP3R1, mouse IP3R2 and rat IP3R3; GST (cleaved yes); made in house; host or cells: E. coli BL21-CodonPlus (DE3)-RILP
Description: The plasmids used for bacterial expression of GST-tagged N-terminal fragments (NT, residues 1–604) of rat IP3R1, mouse IP3R2 and rat IP3R3 have been described, and their coding sequences have been confirmed (Khan et al., [2013]). Plasmids were transformed into BL21-CodonPlus (DE3)-RILP competent cells (Rossi and Taylor, [2011]), and grown for 12 h at 37°C in 20 mL of Luria-Bertani (LB) medium containing carbecillin (50 μg·mL^−1). The volume of medium was then increased to 1 L, and the incubation was continued at 37°C for 3–4 h until the OD600 reached 1–1.5. Protein expression was induced by addition of IPTG (0.5 mM) for 20 h at 15°C. Bacteria were harvested (6000× g, 5 min), washed twice with cold PBS, and the pellet was suspended (∼10^9 cells·mL^−1) in 50 mL of Tris-EDTA medium (TEM: 50 mM Tris, 1 mM EDTA, pH 8.3) supplemented with 10% PopCulture, 1 mM 2-mercaptoethanol and protease inhibitor cocktail (Roche, Burgess Hill, West Sussex, UK; 1 tablet per 50 mL). […]
as §4

[4] = IP3R1, AdA-evoked Ca^2+ release
[5] = IP3R1, IP3-evoked Ca^2+ release
[6] = IP3R1, heparin 400 μg·mL^−1, Δ = control – response with antagonist
[7] = IP3R2, IP3-evoked Ca^2+ release
[8] = IP3R3, AdA-evoked Ca^2+ release

T2 sequence (Q9Z329 whole entry): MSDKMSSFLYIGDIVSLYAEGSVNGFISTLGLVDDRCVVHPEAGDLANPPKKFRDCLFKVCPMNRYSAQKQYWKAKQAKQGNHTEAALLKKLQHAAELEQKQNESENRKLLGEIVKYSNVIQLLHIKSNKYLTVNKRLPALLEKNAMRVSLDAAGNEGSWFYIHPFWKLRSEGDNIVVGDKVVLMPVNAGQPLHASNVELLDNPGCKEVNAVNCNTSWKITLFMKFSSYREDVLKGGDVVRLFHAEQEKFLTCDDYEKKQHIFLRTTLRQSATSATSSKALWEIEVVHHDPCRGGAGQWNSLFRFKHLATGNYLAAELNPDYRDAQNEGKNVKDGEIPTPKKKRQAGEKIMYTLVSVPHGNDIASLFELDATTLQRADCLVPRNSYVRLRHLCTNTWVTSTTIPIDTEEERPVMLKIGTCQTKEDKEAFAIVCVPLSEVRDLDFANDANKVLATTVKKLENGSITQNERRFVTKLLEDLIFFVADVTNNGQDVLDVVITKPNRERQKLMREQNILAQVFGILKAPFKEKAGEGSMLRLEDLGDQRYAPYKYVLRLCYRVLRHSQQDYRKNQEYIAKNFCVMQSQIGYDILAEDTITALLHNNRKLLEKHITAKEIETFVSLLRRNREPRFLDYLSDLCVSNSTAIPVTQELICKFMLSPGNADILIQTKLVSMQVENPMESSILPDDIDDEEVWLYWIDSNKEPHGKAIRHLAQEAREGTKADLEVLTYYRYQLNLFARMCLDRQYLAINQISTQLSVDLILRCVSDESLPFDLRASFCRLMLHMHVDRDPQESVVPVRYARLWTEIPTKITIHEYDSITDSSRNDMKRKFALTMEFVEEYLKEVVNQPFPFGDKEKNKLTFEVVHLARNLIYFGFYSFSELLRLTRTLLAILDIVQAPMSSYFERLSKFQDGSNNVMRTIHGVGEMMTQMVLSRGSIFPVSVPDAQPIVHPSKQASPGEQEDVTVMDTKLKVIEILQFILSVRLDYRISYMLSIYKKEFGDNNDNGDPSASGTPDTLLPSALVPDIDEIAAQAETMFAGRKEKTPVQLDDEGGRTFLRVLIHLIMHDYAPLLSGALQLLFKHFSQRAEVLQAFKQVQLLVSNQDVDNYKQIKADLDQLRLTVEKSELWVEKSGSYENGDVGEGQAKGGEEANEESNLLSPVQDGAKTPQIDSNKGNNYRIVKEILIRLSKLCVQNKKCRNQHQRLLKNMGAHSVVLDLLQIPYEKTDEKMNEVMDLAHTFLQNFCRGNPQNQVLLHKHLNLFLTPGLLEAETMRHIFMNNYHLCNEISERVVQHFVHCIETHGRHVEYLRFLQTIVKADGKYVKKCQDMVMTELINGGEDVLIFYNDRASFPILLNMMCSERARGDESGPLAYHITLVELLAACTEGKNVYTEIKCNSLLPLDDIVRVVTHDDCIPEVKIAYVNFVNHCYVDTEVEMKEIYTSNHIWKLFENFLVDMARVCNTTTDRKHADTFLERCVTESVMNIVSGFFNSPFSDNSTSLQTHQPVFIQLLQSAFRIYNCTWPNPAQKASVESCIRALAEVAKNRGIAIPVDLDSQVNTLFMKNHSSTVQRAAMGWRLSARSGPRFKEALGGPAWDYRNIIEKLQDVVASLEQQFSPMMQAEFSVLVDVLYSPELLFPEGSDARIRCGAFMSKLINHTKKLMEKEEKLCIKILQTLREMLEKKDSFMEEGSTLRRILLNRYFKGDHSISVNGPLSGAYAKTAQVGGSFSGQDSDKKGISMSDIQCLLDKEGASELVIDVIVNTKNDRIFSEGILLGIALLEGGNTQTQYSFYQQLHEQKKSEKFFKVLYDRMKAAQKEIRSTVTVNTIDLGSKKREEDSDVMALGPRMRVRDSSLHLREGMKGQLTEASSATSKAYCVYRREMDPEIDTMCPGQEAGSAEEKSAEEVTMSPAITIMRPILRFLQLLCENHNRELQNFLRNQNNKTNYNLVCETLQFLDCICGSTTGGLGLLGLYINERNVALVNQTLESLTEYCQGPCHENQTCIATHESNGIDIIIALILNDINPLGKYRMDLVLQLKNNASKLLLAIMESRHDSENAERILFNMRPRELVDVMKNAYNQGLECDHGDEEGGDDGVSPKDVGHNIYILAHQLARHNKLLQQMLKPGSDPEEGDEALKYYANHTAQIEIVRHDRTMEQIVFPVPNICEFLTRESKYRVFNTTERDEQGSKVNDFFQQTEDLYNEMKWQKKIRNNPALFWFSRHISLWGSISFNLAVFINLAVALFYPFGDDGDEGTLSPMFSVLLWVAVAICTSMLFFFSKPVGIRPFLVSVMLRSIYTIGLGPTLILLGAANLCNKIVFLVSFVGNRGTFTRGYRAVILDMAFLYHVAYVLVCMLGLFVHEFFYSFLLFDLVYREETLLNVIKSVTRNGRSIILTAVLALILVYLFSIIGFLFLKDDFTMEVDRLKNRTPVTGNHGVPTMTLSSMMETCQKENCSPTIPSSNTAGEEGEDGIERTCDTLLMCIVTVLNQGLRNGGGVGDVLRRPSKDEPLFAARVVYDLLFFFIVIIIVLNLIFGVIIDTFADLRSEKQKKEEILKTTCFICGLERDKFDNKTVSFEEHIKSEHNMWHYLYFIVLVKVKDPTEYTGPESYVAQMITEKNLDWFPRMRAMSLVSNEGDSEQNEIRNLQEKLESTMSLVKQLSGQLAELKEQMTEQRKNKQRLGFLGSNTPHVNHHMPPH
T4 sequence (Q9Z329 1-604): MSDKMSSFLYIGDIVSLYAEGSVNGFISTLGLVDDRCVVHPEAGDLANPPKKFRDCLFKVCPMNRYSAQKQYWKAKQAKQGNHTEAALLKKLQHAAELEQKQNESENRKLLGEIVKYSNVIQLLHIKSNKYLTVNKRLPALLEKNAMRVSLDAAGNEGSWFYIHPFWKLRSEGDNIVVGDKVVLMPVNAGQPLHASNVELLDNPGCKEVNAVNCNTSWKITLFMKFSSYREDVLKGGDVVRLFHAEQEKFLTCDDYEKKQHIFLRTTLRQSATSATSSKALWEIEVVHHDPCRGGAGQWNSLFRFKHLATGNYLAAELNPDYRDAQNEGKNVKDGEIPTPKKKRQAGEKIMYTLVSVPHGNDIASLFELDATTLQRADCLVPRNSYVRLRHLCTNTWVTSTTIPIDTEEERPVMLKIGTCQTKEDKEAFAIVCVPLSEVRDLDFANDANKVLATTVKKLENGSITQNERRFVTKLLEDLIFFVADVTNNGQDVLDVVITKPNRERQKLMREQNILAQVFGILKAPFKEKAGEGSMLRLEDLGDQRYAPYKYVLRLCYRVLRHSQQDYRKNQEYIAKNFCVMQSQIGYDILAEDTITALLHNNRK

Compound: NCCOB(c1ccccc1)c1ccccc1 [2-APB, 2-aminoethoxydiphenyl borate]
- ΔMax (rat IP3R1; IP3R1, 2-APB 50 μM): 0 ± 4%
- ΔpEC50 (rat IP3R1; IP3R1, 2-APB 50 μM added 35 s before IP3): 0.84 ± 0.12 M
- effect on IP3-evoked Ca^2+ release (mouse IP3R2; DT40-IP3R2 cells, 2-APB 50 μM): no significant effect
- ΔMax (mouse IP3R2; IP3R2, 2-APB 50 μM): 0 ± 4%
- effect on IP3-evoked Ca^2+ release (mouse IP3R2; IP3R2, 2-APB 100 μM): no effect
- effect on IP3-evoked Ca^2+ release (rat IP3R3; DT40-IP3R3 cells, 2-APB 50 μM): no significant effect
- ΔMax (rat IP3R3; IP3R3, 2-APB 50 μM): 8 ± 4%
- ΔpEC50 (rat IP3R3; IP3R3, 2-APB 50 μM): 0.02 ± 0.09 M
- effect on IP3-evoked Ca^2+ release (rat IP3R3; IP3R3, 2-APB 100 μM): some inhibition
- effect on binding of ^3H-IP3 to cerebellar membranes [1]: unaffected
- effect on Ca^2+ uptake by the ER ([2]; permeabilized DT40-IP3R1 cells, 50 μM 2-APB): no effect
- effect on steady-state Ca^2+ content of the ER ([2]; permeabilized DT40-IP3R1 cells, 2-APB concentrations higher than 50 μM): reduced the steady-state Ca^2+ content

Compound: C[N+](C)(C)CCOC(N)=O [carbachol, Carbachol]
- EC50 (HEK cells): 10200 nM

Compound: Nc1ncnc2c1ncn2[C@@H]1O[C@H](CO)[C@@H](O[C@H]2O[C@H](CO)[C@@H](OP(=O)(O)O)[C@H](OP(=O)(O)O)[C@H]2O)[C@H]1OP(=O)(O)O [AdA, adenophostin A]
- EC50 (rat IP3R1; permeabilized DT40-IP3R1 cells, read-out: pEC50 (IP3 or AdA-evoked Ca^2+ release) (converted)): 4.47 nM
- EC50 (rat IP3R3; permeabilized DT40-IP3R3 cells, read-out: pEC50 (IP3 or AdA-evoked Ca^2+ release) (converted)): 19.5 nM

Compound: Cn1c(=O)c2c(ncn2C)n(C)c1=O [Caffeine]
- effect on binding of ^3H-IP3 to cerebellar membranes [1]: without affecting
- effect on Ca^2+ content of the intracellular stores ([2]; DT40-IP3R1-3 cells, caffeine 70 mM added 2 min before ATP): significantly reduced

Compound: Heparin
- KD for heparin (Schild plot) (rat IP3R1; [4]): 6.9 µg/mL
- slope of the Schild plots (rat IP3R1; [4]): 0.94 ± 0.03
- KD for heparin (Schild plot) (rat IP3R1; [5]): 4.1 µg/mL
- slope of the Schild plots (rat IP3R1; [5]): 0.95 ± 0.02
- ΔMax (rat IP3R1; [6]): −7 ± 2%
- ΔpEC50 (rat IP3R1; [6]): 1.88 ± 0.05 M
- pEC50(IP3)-pKD(heparin) (rat IP3R1; IP3R1, paired comparisons): 2.08 ± 0.02
- KD for heparin (Schild plot) (mouse IP3R2; [7]): 22 µg/mL
- slope of the Schild plots (mouse IP3R2; [7]): 0.97 ± 0.06
- ΔMax (mouse IP3R2; IP3R2, heparin 800 μg·mL^−1): −4 ± 2%
- ΔpEC50 (mouse IP3R2; IP3R2, heparin 800 μg·mL^−1): 1.49 ± 0.09 M
- pEC50(IP3)-pKD(heparin) (mouse IP3R2; IP3R2, paired comparisons): 2.16 ± 0.09
- KD for heparin (Schild plot) (rat IP3R3; [8]): 2.1 µg/mL
- slope of the Schild plots (rat IP3R3; [8]): 0.98 ± 0.04
- slope of the Schild plots (rat IP3R3; IP3R3, IP3-evoked Ca^2+ release): 1.14 ± 0.41
- KD for heparin (Schild plot) (rat IP3R3; IP3R3, IP3-evoked Ca^2+ release, 40% Ca^2+ release): 2.8 µg/mL
- ΔMax (rat IP3R3; IP3R3, heparin 400 μg·mL^−1): −3 ± 3%
- ΔpEC50 (rat IP3R3; IP3R3, heparin 400 μg·mL^−1): 2.34 ± 0.07 M
- pEC50(IP3)-pKD(heparin) (rat IP3R3; IP3R3, paired comparisons): 1.11 ± 0.08
- affinity of the NT for heparin relative to that measured in functional analyses / full-length IP3R [3]: up to 2000 fold
